Measurements from patent US20080299195A1, “USE OF RANOLAZINE FOR ELEVATED BRAIN-TYPE NATRIURETIC PEPTIDE” (priority 2007, published 2008).

Tested on: patients with non-ST elevation ACS
Test: MERLIN-TIMI 36 trial: randomized, double-blind, placebo-controlled trial of ranolazine, stratified by baseline BNP
Assay type: in vivo, human
Settings: ranolazine vs placebo
Excerpt: Ranolazine is believed to exert anti-ischemic effects through a reduction in myocardial cellular sodium and calcium overload with a consequent reduction in wall stress. B-type natriuretic peptide (BNP) is released in response to increased wall stress and is a potent indicator of risk in acute coronary syndromes (ACS). This study was a prospective evaluation of the interaction between BNP and the effect of ranolazine as part of a randomized, double-blind, placebo-controlled trial.
Patients with a non-ST elevation acute coronary syndrome (NSTEACS), refers to patients with chest discomfort or anginal equivalent occurring at rest, lasting ≧10 minutes, and consistent with myocardial ischemia, and the presence of ischemic symptoms (≧5 minutes) at rest within 48 hours of admittance which may include index episode, and having at least one of the following indicators of moderate-high risk: • Elevated cardiac troponin (above local MI limit) or CK-MB (>ULN) • ST-depression (horizontal or down-sloping) >0.1 mV • Diabetes mellitus (requiring insulin or oral therapy) • A Risk Score of >3 wherein one point is assigned for each of the following variables and a total score calculated as the arithmetic sum: • Age >65 years; • Known CAD (prior MI, CABG, PCI or angiographic stenosis ≧50%); • Three or more cardiac risk factors (DM, elevated cholesterol, hypertension, family history); • More than one episode of ischemic discomfort at rest in the prior 24 hours; • Chronic aspirin use in the 7 days preceding onset of symptoms; • ST segment depression ≧0.05 mV; and • Elevated cardiac troponin or CK-MB.
Plasma BNP were measured (ADVIA® BNP) at baseline (N=4543), 14 days (N=4079), and the Final Visit (N=3328) of the patients with non-ST elevation ACS randomized to ranolazine or placebo in the MERLIN-TIMI 36 trial. During the trial 200 mg of ranolazine (or matching placebo) was administered intravenously over 1 hour, followed by an 80 mg/hr intravenous infusion, which was reduced to 40 mg/hr for patients with an estimated creatinine clearance of less than […] (<0.50 mL/s), and was continued for 12 to 96 hours. On or near the completion (about 1 hour before completion) of the infusion, transition from the IV solution to ranolazine extended release (or matching placebo) occurred and ranolazine extended release (or matching placebo) continued orally at a dose of 1000 mg twice daily until the end of the study. [Morrow, et al., J. Am. Med. Assoc'n. 297 (16), 1775-1783, 2007]. Patients were stratified using BNP >80 pg/mL based upon prior work with this assay. The primary endpoint of the trial was a composite of cardiovascular death, myocardial infarction, or recurrent ischemia (CVD/MI/RI).

## COc1ccccc1OCC(O)CN1CCN(CC(=O)Nc2c(C)cccc2C)CC1 (racemic) [ranolazine, (±)-N-(2,6-dimethylphenyl)-4-[2-hydroxy-3-(2-methoxyphenoxy)propyl]-1-piperazine-acetamide]
Patients with BNP>80 pg/mL, CI 0.35-0.84, p=0.005
  HR for endpoint component of worsening angina: 0.55
Patients with BNP>80 pg/mL, IV 200 mg over 1 h, then 80 mg/hr for 12 to 96 hours, then extended release 1000 mg twice daily orally, 95% CI 0.66-0.94, p=0.009
  HR for primary endpoint (composite of cardiovascular death, myocardial infarction, or recurrent ischemia, CVD/MI/RI): 0.79
Patients with a negative BNP result, p-interaction=0.052
  effect on primary endpoint (CVD/MI/RI): lack of detectable effect
95% CI 0.63-1.28, p=0.55, p-interaction 0.079
  HR for endpoint component of worsening angina: 0.90
